# Results reported in patent US20100028395A1, “COMPOSITIONS CONTAINING N-ACETYLGLUCOSAMINE FOR USE IN DERMO-COSMETOLOGY AND AESTHETIC MEDICINE” (ROTTAPHARM S.P.A., priority 2007, published 2010).
# How the values were obtained:
# [1] = system: Human fibroblasts, Detroit 551 ATCC CCL III; experiment: Stimulation of HA synthesis in human fibroblast cultures (EIA HA assay); type: cell-based; conditions: for HA(ng/well) (Diff. from baseline) / HA (%) (Diff. from baseline): 48 h; for HA (%) from NAG (consistent doses): see Table 2
# Source text: The test has been conducted in two stages, i.e.: • stage A: in which the stimulation of HA expression by COMBI has been evaluated while maintaining the concentration constant and varying the reciprocal quantities of its components. The concentration used has been selected so as to enable comparison with the results derived from stage B; • stage B: in which the effect of CA on HA expression has been evaluated by varying its concentration and in comparison with doses consistent with its components. […] Human fibroblasts have been grown in suitable growth medium (Eagle's minimal essential medium) supplemented with 10% foetal calf serum (FCS), 1 mM sodium pyruvate, 2 mM glutamine, non-essential aminoacids and 50 μg/ml glutamycin. […] After 48 hours, the supernatant has been removed and used for the determination of the parameters of interest. The test has been conducted in duplicate and untreated cell cultures have been used as controls. HA has been assayed (dosed) by means of an immuno-enzymatic test using a commercially available kit (EIA, Corgenix). De novo HA synthesis has been evaluated in the culture medium following treatment with the test substances, according to the protocol provided with the test, and against the calibration curve obtained using the HA standard contained in the kit. […] • evaluation of the effects of the substances tested, at the various concentrations, on fibroblast cultures has been expressed as the absolute and percent increase or decrease of the HA expression, with respect to the corresponding control culture, after 48 hours of incubation. The percentage difference increase or decrease of the effects exerted by CA and NAG, at corresponding concentrations, have then been calculated, with evaluation of their potential significance by means of the Student's “t” test.
# [2] = system: Human keratinocyte primary culture: HEKA; experiment: Stimulation of protein synthesis in human keratinocyte cultures (Lowry method); type: cell-based; conditions: keratinocytes
# Procedure: The following have been used: • Human fibroblasts, Detroit 551 ATCC CCL III from LGC Promochem (Milan, Italy); • Human keratinocyte primary culture: HEKA, Cascade Biologics, cat. 005-5C. Test substances and concentrations
# The substances and concentrations tested are those reported below (on both fibroblasts and keratinocytes): • CA: 0.13, 0.66, 1.32, and 2.64 mg/ml • NAG: 0.1, 0.5, 1.0, and 2.0 mg/ml
# The method is identical to that already described for collagen and elastin with the difference that, following the addition of the test substances into the culture medium, the medium has been substituted daily for three days. Each sample has been tested in duplicate and the experiments have been repeated twice. The parameter of interest, i.e. protein synthesis, has been evaluated at 24, 48 and 72 hours on separate plates. Untreated cell cultures have been used as controls.
# Protein has been assayed using the Lowry method [Lowry et al. 1951] consisting of a Biuret reduction reaction envisaging the use of Folin-Ciocalteau reagent as chromophore, with a yellow to blue colour change and spectrophotometric measurement at 750 nm [Creighton et al. 1984; Sengupta et al. 1993].
# The protein content of the cultures in question has been obtained from comparison of their optical densities with a titration curve made using albumin as a protein standard.
# Evaluation of the effect of the substances tested, at the various concentrations and times, on cultures of both fibroblasts and keratinocytes has been expressed in both absolute terms (expressed protein production in mg/ml) and as percentage increase or decrease with respect to control cultures.
# The percentage difference increase or decrease of the effects exerted by CA and NAG, over various days and at the corresponding concentrations, have then been calculated, with evaluation of their potential statistical significance by means of the test Student “t” test.
# hyaluronate synthetase = conditions: plasma membrane fractions of human skin fibroblasts; cited from earlier work
compound,measurement,setting,value
"CC(=O)N[C@@H](C=O)[C@@H](O)[C@H](O)[C@H](O)CO [NAG, N-acetyl-2-amino-2 deoxyglucose]",HA(ng/well) (Diff. from baseline),[1]; NAG 0.50 mg/ml,+54 ng/well
same,HA (%) (Diff. from baseline),[1]; NAG 1.00 mg/ml,+58.98%
same,HA(ng/well) (Diff. from baseline),[1]; NAG 1.00 mg/ml,+289 ng/well
same,HA (%) (Diff. from baseline),[1]; NAG 1.50 mg/ml,+76.12%
same,HA(ng/well) (Diff. from baseline),[1]; NAG 1.50 mg/ml,+373 ng/well
same,HA (%) (Diff. from baseline),[1]; NAG 2.00 mg/ml,+78.78%
same,HA(ng/well) (Diff. from baseline),[1]; NAG 2.00 mg/ml,+386 ng/well
same,HA (%) (Diff. from baseline),[1]; NAG 2.50 mg/ml,+96.73%
same,HA(ng/well) (Diff. from baseline),[1]; NAG 2.50 mg/ml,+474 ng/well
same,HA (%) from NAG (consistent doses),[1]; NAG alone at 0.93 mg/ml (content of 1:3.5 combination),≈59%
same,HA (%) from NAG (consistent doses),[1]; NAG alone at 1.71 mg/ml (content of 1:0.5 combination),+76.12-+78.8%
same,Expr. prot. from NAG % incr. over baseline,"[2]; NAG 0.10 mg/ml, 24 hours",−34.7%
same,Expr. prot. from NAG (mg/ml) - Mean +/− st. dev.,"[2]; NAG 0.10 mg/ml, 24 hours",0.16 ± 0.037 mg/mL
same,Expr. prot. from NAG (mg/ml) - Mean +/− st. dev.,"[2]; NAG 0.10 mg/ml, 48 hours",0.42 ± 0.15 mg/mL
same,Expr. prot. from NAG % incr. over baseline,"[2]; NAG 0.10 mg/ml, 72 hours",+15.5%
same,Expr. prot. from NAG (mg/ml) - Mean +/− st. dev.,"[2]; NAG 0.10 mg/ml, 72 hours",0.67 ± 0.09 mg/mL
same,Expr. prot. from NAG % incr. over baseline,"[2]; NAG 0.50 mg/ml, 24 hours",−10.2%
same,Expr. prot. from NAG (mg/ml) - Mean +/− st. dev.,"[2]; NAG 0.50 mg/ml, 24 hours",0.22 ± 0.039 mg/mL
same,Expr. prot. from NAG (mg/ml) - Mean +/− st. dev.,"[2]; NAG 0.50 mg/ml, 48 hours",0.40 ± 0.12 mg/mL
same,Expr. prot. from NAG % incr. over baseline,"[2]; NAG 0.50 mg/ml, 72 hours",+10.3%
same,Expr. prot. from NAG (mg/ml) - Mean +/− st. dev.,"[2]; NAG 0.50 mg/ml, 72 hours",0.64 ± 0.12 mg/mL
same,Expr. prot. from NAG % incr. over baseline,"[2]; NAG 1.00 mg/ml, 24 hours",+44.9%
same,Expr. prot. from NAG (mg/ml) - Mean +/− st. dev.,"[2]; NAG 1.00 mg/ml, 24 hours",0.36 ± 0.047 mg/mL
same,Expr. prot. from NAG % incr. over baseline,"[2]; NAG 1.00 mg/ml, 48 hours",+41.2%
same,Expr. prot. from NAG (mg/ml) - Mean +/− st. dev.,"[2]; NAG 1.00 mg/ml, 48 hours",0.48 ± 0.11 mg/mL
same,Expr. prot. from NAG % incr. over baseline,"[2]; NAG 1.00 mg/ml, 72 hours",+20.7%
same,Expr. prot. from NAG (mg/ml) - Mean +/− st. dev.,"[2]; NAG 1.00 mg/ml, 72 hours",0.70 ± 0.08 mg/mL
same,Expr. prot. from NAG (mg/ml) - Mean +/− st. dev.,"[2]; NAG 2.00 mg/ml, 24 hours",0.38 ± 0.050 mg/mL
same,Expr. prot. from NAG % incr. over baseline,"[2]; NAG 2.00 mg/ml, 48 hours",+38.2%
same,Expr. prot. from NAG (mg/ml) - Mean +/− st. dev.,"[2]; NAG 2.00 mg/ml, 48 hours",0.47 ± 0.12 mg/mL
same,Expr. prot. from NAG % incr. over baseline,"[2]; NAG 2.00 mg/ml, 72 hours",+43.1%
same,Expr. prot. from NAG (mg/ml) - Mean +/− st. dev.,"[2]; NAG 2.00 mg/ml, 72 hours",0.83 ± 0.070 mg/mL
same,activity of the enzyme hyaluronate synthetase,hyaluronate synthetase,stimulates
